pIC50: −log10 of the molar value. Some results are limits rather than exact numbers.

Chain of hepatitis C virus RNA dependant polymerase (NS5B) (P26663 2420-3010): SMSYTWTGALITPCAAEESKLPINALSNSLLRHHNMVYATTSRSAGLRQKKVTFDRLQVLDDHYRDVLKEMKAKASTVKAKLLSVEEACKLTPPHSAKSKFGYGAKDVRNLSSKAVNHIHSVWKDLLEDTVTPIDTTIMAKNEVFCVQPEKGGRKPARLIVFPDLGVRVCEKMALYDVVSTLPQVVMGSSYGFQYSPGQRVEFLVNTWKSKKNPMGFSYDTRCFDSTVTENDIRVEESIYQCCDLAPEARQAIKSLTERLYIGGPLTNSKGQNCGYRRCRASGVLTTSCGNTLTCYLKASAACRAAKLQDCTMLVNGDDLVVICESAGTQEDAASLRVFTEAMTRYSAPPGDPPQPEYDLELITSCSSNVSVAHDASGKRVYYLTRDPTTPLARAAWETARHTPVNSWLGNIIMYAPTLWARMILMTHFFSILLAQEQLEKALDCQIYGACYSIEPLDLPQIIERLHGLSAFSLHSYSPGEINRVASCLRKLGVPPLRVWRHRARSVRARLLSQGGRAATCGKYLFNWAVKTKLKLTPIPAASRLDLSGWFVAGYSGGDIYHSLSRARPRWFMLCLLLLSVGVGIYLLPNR

This test has as its target hepatitis C virus RNA dependant polymerase (NS5B) (Hepatitis C virus genotype 1b, UniProt P26663). In words: Inhibition of NS5B RNA dependent RNA polymerase activity. The format is biochemical. Conditions: Table 7; class ranges. As for the experimental part:
A suitable assay is described in the examples.
Inhibition of NS5B RNA Dependent RNA Polymerase Activity
The compounds of the invention were tested for inhibitory activity against the hepatitis C virus RNA dependant polymerase (NS5B), according to protocol described in WO 03/010141
`Cc1c(C(=O)O)ccc2c(C3CCCCC3)c(-c3ccoc3)n(CC(=O)N3CCC(N4CCCC4)CC3)c12` [Example 7004] had a negative-log IC50 (pIC50) of over 6.70. In the case of `Cc1c(C(=O)O)ccc2c(C3CCCCC3)c(-c3ccoc3)n(CC(=O)N3CCOCC3)c12` [Example 7005] it was over 6.70; in that of `COc1cc2c(C3CCCCC3)c(-c3ccoc3)n(CC(=O)N(C)C)c2cc1C(=O)O` [Example 7006], 6.00 to 6.70. In the case of `O=C(O)c1cc2c(cc1O)c(C1CCCCC1)c(-c1ccoc1)n2CC(=O)N1CCC(N2CCCC2)CC1` [Example 7007] it was 5.00 to 6.00. Under `O=C(O)c1cc2c(cc1O)c(C1CCCCC1)c(-c1ccoc1)n2CC(=O)N1CCOCC1` [Example 7008] stands 5.00 to 6.00; under `CN(C)C(=O)Cn1c(-c2ccoc2)c(C2CCCCC2)c2cc(O)c(C(=O)O)cc21` [Example 7009], 5.00 to 6.00; under `COC(=O)c1cc2c(cc1O)c(C1CCCCC1)c(-c1ccoc1)n2CC(=O)N1CCC(N2CCCC2)CC1` [Example 7010], 5.00 to 6.00.

As to `O=C(O)COc1cc2c(C3CCCCC3)c(-c3ccoc3)n(CC(=O)N3CCOCC3)c2cc1C(=O)O` [Example 7011], the pIC50 is 5.00 to 6.00. In the case of `O=C(NC1CCCc2ccccc21)c1ccc2c(c1)c(C1CCCCC1)c(-c1ccoc1)n2CC(=O)N1CCC(N2CCCC2)CC1` (stereo not drawn) [Example 7012] it was 5.00 to 6.00; in that of `CCN1CCCC1CNC(=O)c1ccc2c(c1)c(C1CCCCC1)c(-c1ccoc1)n2CC(=O)N1CCC(N2CCCC2)CC1` (stereo not drawn) [Example 7013], 5.00 to 6.00; in that of `O=C(NCCN1CCCC1)c1ccc2c(c1)c(C1CCCCC1)c(-c1ccoc1)n2CC(=O)N1CCC(N2CCCC2)CC1` [Example 7014], 5.00 to 6.00. In the case of `O=C(NCCc1c[nH]cn1)c1ccc2c(c1)c(C1CCCCC1)c(-c1ccoc1)n2CC(=O)N1CCC(N2CCCC2)CC1` [Example 7015] it was 5.00 to 6.00; in that of `O=C(NCC1CCCO1)c1ccc2c(c1)c(C1CCCCC1)c(-c1ccoc1)n2CC(=O)N1CCC(N2CCCC2)CC1` (stereo not drawn) [Example 7016], 5.00 to 6.00. In the case of `NC(=O)C1CCCN(C(=O)c2ccc3c(c2)c(C2CCCCC2)c(-c2ccoc2)n3CC(=O)N2CCC(N3CCCC3)CC2)C1` (stereo not drawn) [Example 7017] it was 5.00 to 6.00; in that of `O=C(Nc1ccc(N2CCOCC2)cc1)c1ccc2c(c1)c(C1CCCCC1)c(-c1ccoc1)n2CC(=O)N1CCC(N2CCCC2)CC1` [Example 7018], 5.00 to 6.00. Consider `O=C(NCc1ccccn1)c1ccc2c(c1)c(C1CCCCC1)c(-c1ccoc1)n2CC(=O)N1CCC(N2CCCC2)CC1` [Example 7019], for which the pIC50 is 5.00 to 6.00.

As for `CN(CCc1ccccn1)C(=O)c1ccc2c(c1)c(C1CCCCC1)c(-c1ccoc1)n2CC(=O)N1CCC(N2CCCC2)CC1` [Example 7020], the negative logarithm of the IC50 (pIC50) is 5.00 to 6.00.

Compound `O=C(NCc1cccnc1)c1ccc2c(c1)c(C1CCCCC1)c(-c1ccoc1)n2CC(=O)N1CCC(N2CCCC2)CC1` [Example 7021] gave a pIC50 of 5.00 to 6.00.

Take `O=C(Nc1ccccc1)c1ccc2c(c1)c(C1CCCCC1)c(-c1ccoc1)n2CC(=O)N1CCC(N2CCCC2)CC1` [Example 7023]: the negative-log IC50 (pIC50) was 5.00 to 6.00. In the case of `O=C(Nc1ccc(CCO)cc1)c1ccc2c(c1)c(C1CCCCC1)c(-c1ccoc1)n2CC(=O)N1CCC(N2CCCC2)CC1` [Example 7024] it was 5.00 to 6.00; in that of `O=C(NC(Cc1ccccc1)c1ccccc1)c1ccc2c(c1)c(C1CCCCC1)c(-c1ccoc1)n2CC(=O)N1CCC(N2CCCC2)CC1` (stereo not drawn) [Example 7025], 5.00 to 6.00. Under `CC(NC(=O)c1ccc2c(c1)c(C1CCCCC1)c(-c1ccoc1)n2CC(=O)N1CCC(N2CCCC2)CC1)c1ccccc1` (stereo not drawn) [Example 7026] stands 5.00 to 6.00; under `O=C(NCc1ccccc1)c1ccc2c(c1)c(C1CCCCC1)c(-c1ccoc1)n2CC(=O)N1CCC(N2CCCC2)CC1` [Example 7027], 5.00 to 6.00. In the case of `COc1ccc(CNC(=O)c2ccc3c(c2)c(C2CCCCC2)c(-c2ccoc2)n3CC(=O)N2CCC(N3CCCC3)CC2)cc1OC` [Example 7028] it was 5.00 to 6.00. In turn, `Cc1cccc(CNC(=O)c2ccc3c(c2)c(C2CCCCC2)c(-c2ccoc2)n3CC(=O)N2CCC(N3CCCC3)CC2)c1` [Example 7029] gave a negative logarithm of the IC50 (pIC50) of 5.00 to 6.00. Under `CC(CNC(=O)c1ccc2c(c1)c(C1CCCCC1)c(-c1ccoc1)n2CC(=O)N1CCC(N2CCCC2)CC1)c1ccccc1` (stereo not drawn) [Example 7030] stands 5.00 to 6.00; under `CC(=O)NCCNC(=O)c1ccc2c(c1)c(C1CCCCC1)c(-c1ccoc1)n2CC(=O)N1CCC(N2CCCC2)CC1` [Example 7031], 5.00 to 6.00.

For `NS(=O)(=O)c1ccc(CCNC(=O)c2ccc3c(c2)c(C2CCCCC2)c(-c2ccoc2)n3CC(=O)N2CCC(N3CCCC3)CC2)cc1` [Example 7032], the pIC50 is 5.00 to 6.00. In the case of `CN(C)C(=O)c1ccc2c(c1)c(C1CCCCC1)c(-c1ccoc1)n2CC(=O)N1CCC(N2CCCC2)CC1` [Example 7033] it was 5.00 to 6.00; in that of `CNC(=O)c1ccc2c(c1)c(C1CCCCC1)c(-c1ccoc1)n2CC(=O)N1CCC(N2CCCC2)CC1` [Example 7034], 5.00 to 6.00. As for `NC(=O)C1CCN(C(=O)c2ccc3c(c2)c(C2CCCCC2)c(-c2ccoc2)n3CC(=O)N2CCC(N3CCCC3)CC2)CC1` [Example 7035], the pIC50 was 5.00 to 6.00. In the case of `O=C(NCc1c(F)cccc1Cl)c1ccc2c(c1)c(C1CCCCC1)c(-c1ccoc1)n2CC(=O)N1CCC(N2CCCC2)CC1` [Example 7036] it was 5.00 to 6.00; in that of `O=C(Nc1cccc(-c2ccccc2)c1)c1ccc2c(c1)c(C1CCCCC1)c(-c1ccoc1)n2CC(=O)N1CCC(N2CCCC2)CC1` [Example 7037], 5.00 to 6.00.

For `O=C(NCCSCc1c(F)cccc1Cl)c1ccc2c(c1)c(C1CCCCC1)c(-c1ccoc1)n2CC(=O)N1CCC(N2CCCC2)CC1` [Example 7038], the pIC50 was 5.00 to 6.00. In the case of `CC(=O)NC1CCN(C(=O)c2ccc3c(c2)c(C2CCCCC2)c(-c2ccoc2)n3CC(=O)N2CCC(N3CCCC3)CC2)C1` (stereo not drawn) [Example 7039] it was 5.00 to 6.00; in that of `O=C(NC1CCN(Cc2ccccc2)C1)c1ccc2c(c1)c(C1CCCCC1)c(-c1ccoc1)n2CC(=O)N1CCC(N2CCCC2)CC1` (stereo not drawn) [Example 7040], 5.00 to 6.00; in that of `O=C(N[C@H]1CC[C@H](O)CC1)c1ccc2c(c1)c(C1CCCCC1)c(-c1ccoc1)n2CC(=O)N1CCC(N2CCCC2)CC1` [Example 7041], 5.00 to 6.00.

Compound `O=C(NCc1ccc(F)c(C(F)(F)F)c1)c1ccc2c(c1)c(C1CCCCC1)c(-c1ccoc1)n2CC(=O)N1CCC(N2CCCC2)CC1` [Example 7042] showed a pIC50 of 5.00 to 6.00.

In turn, `O=C(NCCN1CCNC1=O)c1ccc2c(c1)c(C1CCCCC1)c(-c1ccoc1)n2CC(=O)N1CCC(N2CCCC2)CC1` [Example 7044] gave a pIC50 of 5.00 to 6.00. On to `O=C(O)c1ccc(CNC(=O)c2ccc3c(c2)c(C2CCCCC2)c(-c2ccoc2)n3CC(=O)N2CCC(N3CCCC3)CC2)cc1` [Example 7045], for which the pIC50 is 5.00 to 6.00. Under `CC(C)CC(NC(=O)c1ccc2c(c1)c(C1CCCCC1)c(-c1ccoc1)n2CC(=O)N1CCC(N2CCCC2)CC1)C(N)=O` (stereo not drawn) [Example 7046] stands 5.00 to 6.00. Under `CC(C)(C)OC(=O)C(C)(C)NC(=O)c1ccc2c(c1)c(C1CCCCC1)c(-c1ccoc1)n2CC(=O)N1CCC(N2CCCC2)CC1` [Example 7047] stands 5.00 to 6.00. As for `Cc1oc(-c2ccc(NC(=O)c3ccc4c(c3)c(C3CCCCC3)c(-c3ccoc3)n4CC(=O)N3CCC(N4CCCC4)CC3)cc2)cc1C(=O)O` [Example 7048], the pIC50 is 5.00 to 6.00. Under `O=C(NC(CCO)c1ccccc1)c1ccc2c(c1)c(C1CCCCC1)c(-c1ccoc1)n2CC(=O)N1CCC(N2CCCC2)CC1` (stereo not drawn) [Example 7049] stands 5.00 to 6.00.

`O=C(O)CC(NC(=O)c1ccc2c(c1)c(C1CCCCC1)c(-c1ccoc1)n2CC(=O)N1CCC(N2CCCC2)CC1)C(F)(F)F` (stereo not drawn) [Example 7051]: the pIC50 was 5.00 to 6.00. With `Cc1cnc(CNC(=O)c2ccc3c(c2)c(C2CCCCC2)c(-c2ccoc2)n3CC(=O)N2CCC(N3CCCC3)CC2)cn1` [Example 7052], the negative-log IC50 (pIC50) is 5.00 to 6.00. Under `CN1C(C)(C)CC(NC(=O)c2ccc3c(c2)c(C2CCCCC2)c(-c2ccoc2)n3CC(=O)N2CCC(N3CCCC3)CC2)CC1(C)C` [Example 7053] stands 6.00 to 6.70; under `O=C(NC[C@H]1CC[C@H](C(=O)O)CC1)c1ccc2c(c1)c(C1CCCCC1)c(-c1ccoc1)n2CC(=O)N1CCC(N2CCCC2)CC1` [Example 7054], 5.00 to 6.00; under `O=C(O)Cc1cccc(NC(=O)c2ccc3c(c2)c(C2CCCCC2)c(-c2ccoc2)n3CC(=O)N2CCC(N3CCCC3)CC2)c1` [Example 7055], 5.00 to 6.00. Under `O=C(O)CCc1cccc(NC(=O)c2ccc3c(c2)c(C2CCCCC2)c(-c2ccoc2)n3CC(=O)N2CCC(N3CCCC3)CC2)c1` [Example 7056] stands 5.00 to 6.00.

Compound `COC(=O)C(Cc1ccc(O)cc1)NC(=O)c1ccc2c(c1)c(C1CCCCC1)c(-c1ccoc1)n2CC(=O)N1CCC(N2CCCC2)CC1` (stereo not drawn) [Example 7057] showed a pIC50 of 5.00 to 6.00.

On to `NC(=O)c1ccc2c(c1)c(C1CCCCC1)c(-c1ccoc1)n2CC(=O)N1CCC(N2CCCC2)CC1` [Example 7058], for which the negative-log IC50 (pIC50) was 5.00 to 6.00. In the case of `O=C(NCCOCCO)c1ccc2c(c1)c(C1CCCCC1)c(-c1ccoc1)n2CC(=O)N1CCC(N2CCCC2)CC1` [Example 7059] it was 5.00 to 6.00; in that of `COC(=O)C(Cc1ccc(Cl)cc1)NC(=O)c1ccc2c(c1)c(C1CCCCC1)c(-c1ccoc1)n2CC(=O)N1CCC(N2CCCC2)CC1` (stereo not drawn) [Example 7060], 5.00 to 6.00. Regarding `CC(C)(C)NC(=O)[C@@H]1Cc2ccccc2CN1C(=O)c1ccc2c(c1)c(C1CCCCC1)c(-c1ccoc1)n2CC(=O)N1CCC(N2CCCC2)CC1` [Example 7061], the pIC50 is 5.00 to 6.00. In the case of `O=C(O)/C=C/c1ccc(NC(=O)C2(NC(=O)c3ccc4c(c3)c(C3CCCCC3)c(-c3ccoc3)n4CC(=O)N3CCC(N4CCCC4)CC3)CCC2)cc1` [Example 7062] it was 5.00 to 6.00.

Take `O=C(NS(=O)(=O)c1ccccc1)c1ccc2c(c1)c(C1CCCCC1)c(-c1ccoc1)n2CC(=O)N1CCC(N2CCCC2)CC1` [Example 7063]: the pIC50 is 5.00 to 6.00.
